Data published in patent US20250332112A1, “IONIZABLE CATIONIC LIPIDS FOR LIPID NANOPARTICLES” (GENEVANT SCIENCES GMBH, priority 2022, published 2025).

What was measured:
[1] = Particle characteristics of LNPs containing luciferase mRNA and novel ionizable lipids; format: physicochemical
Description: The lipid solution contains 4 components: a PEG-conjugated lipid, an ionizable lipid, cholesterol, and a phospholipid (e.g., DSPC). Lipid stocks were prepared using the lipid identities and molar ratios as described, to achieve a total concentration of ˜7 mg/mL in 100% ethanol. Firefly luciferase mRNA (TriLink Biotechnologies, L-7202) or ornithine transcarbamylase (OTC) mRNA (TriLink Biotechnologies, custom designed) was diluted in acetate, pH 5 buffer and nuclease free water to achieve a target concentration of 0.366 mg/mL mRNA in 100 mM acetate, pH 5. Equal volumes of the lipid and nucleic acid solutions were blended at a flow rate of 400 mL/min through a T-connector, and diluted with ˜4 volumes of PBS, pH 7.4. Formulations were placed in Slide-A-Lyzer dialysis units (MWCO 10,000) and dialyzed overnight against 10 mM Tris, 500 mM NaCl, pH 8 buffer. Following dialysis, the formulations were concentrated to ˜0.6 mg/mL using VivaSpin concentrator units (MWCO 100,000) and dialyzed overnight against 5 mM Tris, 10% sucrose, pH 8 buffer. Formulations were filtered through a 0.2 μm syringe filter (PES membrane). Nucleic acid concentration was determined by the RiboGreen assay. Particle size and polydispersity were determined using a Malvern Nano Series Zetasizer.
LNP formulations containing novel ionizable lipids all produced stable particles with high encapsulation efficiency (Tables 1-7).

[2] = tested on: luciferase activity in the liver; experiment: Luciferase activity in liver after intravenous luciferase mRNA LNP; format: in vivo; settings: 0.5 mg/kg IV, 6 h post-IV administration, BALB/c mice (n = 4)
Description: Frozen aliquots of liver were thawed and homogenized in 1 mL of 1×CCLR (Cell Culture Lysis Reagent) using a FastPrep® homogenizer. The homogenate was then centrifuged at 16,000 RPM for 10 minutes at 4° C. Twenty (20) μL of the supernatant was loaded into a 96-well white plate and luminescence measured following addition of luciferase reagent (Promega Luciferase Assay System). Luciferase activity was determined by comparing luminescence of the homogenized samples to luciferase protein standards. To account for any quenching of luminescence by components in the liver homogenate, luciferase was added to the liver homogenates of untreated animals and the resulting luminescence measured. The resulting quench factor was applied to all samples to obtain the corrected luciferase activity, and normalized per unit mass of tissue analyzed.

[3] = Table 1, luciferase mRNA LNP 1.6:54.6:32.8:10.9
[4] = Table 1, luciferase mRNA LNP 1.6:54.6:32.8:10.9 PEG2000-C-DMA:Ionizable lipid:Cholesterol:DSPC
[5] = Table 5, luciferase mRNA LNP 1.6:54.6:32.8:10.9
[6] = Table 2, luciferase mRNA LNP 1.6:54.6:32.8:10.9
[7] = Table 4, luciferase mRNA LNP 1.6:54.6:32.8:10.9

CCCCCCCCCCCS(=O)(=O)N(CCCN(C)C)C(CCCCCCCCC)CC(=O)OCC(CCCCCC)CCCCCCCC (stereo not drawn) [Compound 51, 2-hexyldecyl 3-{N-[3-(dimethylamino)propyl]undecane-1-sulfonamido}dodecanoate]
Final Product % EE [1, 3]: 94% | Final Product PDI [1, 3]: 0.09 | Final Product Z-avg [1, 4]: 62 nm | Luc Activity ([2]; Table 8): 2.50E+07 pg/g liver

CCCCCCCCCCC(CCCCCC(=O)OCC(CCCCCC)CCCCCCCC)N(OCCCN(C)C)C(=O)CCCCCCCCC (stereo not drawn) [Compound 42, 2-hexyldecyl 7-{N-[3-(dimethylamino)propoxy]decanamido}heptadecanoate]
Final Product % EE [1, 5]: 97% | Final Product PDI [1, 5]: 0.10 | Final Product Z-avg [1, 5]: 65 nm | Luc Activity ([2]; Table 12): 1.14E+07 pg/g liver

CCCCCCCCCCC(CCCC(=O)OCC(CCCCCC)CCCCCCCC)N(CCCN(C)C)C(=O)CCCCCCC(=O)OCC(CCCC)CCCCCC (stereo not drawn) [Compound 25, 2-Hexyldecyl 5-(8-((2-butyloctyl)oxy)-N-(3-(dimethylamino)propyl)-8-oxooctanamido)-pentadecanoate]
Final Product % EE [1, 6]: 99% | Final Product PDI [1, 6]: (0.03) | Final Product Z-avg [1, 6]: 78 nm | Luc Activity ([2]; Table 9): 7.76E+06 pg/g liver

CCCCCCCCCCC(CCCCCC(=O)OCCCCC(CCCCCCCC)CCCCCCCC)N(CCCN(C)C)C(=O)CCCCCCC(=O)OC(CC)CCCCCCCC (stereo not drawn) [Compound 27, 5-Octyltridecyl 7-(N-(3-(dimethylamino)propyl)-8-oxo-8-(undecan-3-yloxy)octanamido)-heptadecanoate]
Final Product % EE [1, 7]: 98% | Final Product PDI [1, 7]: 0.04 | Final Product Z-avg [1, 7]: 86 nm | Luc Activity ([2]; Table 11): 9.17E+06 pg/g liver

CCCCC/C=C\CCCC(CCC/C=C\CCCCC)=NNC(=O)CC(CCCCCCCCC)N(CCCN(C)C)C(=O)CCCCCCCCC (stereo not drawn) [Compound 56, N-(3-(Dimethylamino)propyl)-N-(1-(2-((6Z,15Z)-henicosa-6,15-dien-11-ylidene)hydrazineyl)-1-oxododecan-3-yl)decanamide]
Final Product % EE [1, 6]: 96% | Final Product PDI [1, 6]: (0.10) | Final Product Z-avg [1, 6]: 97 nm | Luc Activity ([2]; Table 9): 9.00E+06 pg/g liver

CCCCCCCCCCC(CCCCCCC(=O)OCCC(CCCCC)CCCCC)N(CCCN(C)C)C(=O)CCCCCCC(=O)OCCC(CCCCC)CCCCC (stereo not drawn) [Compound 30]
Luc Activity ([2]; Table 12): 3.76E+07 pg/g liver

CCCCCCCCCCC(CCCCCCC(=O)OCC(CCCCCC)CCCCCCCC)N(OCCCN(C)C)C(=O)CCCCCCC(=O)OCC(CCCC)CCCCCC (stereo not drawn) [Compound 41, 2-hexyldecyl 8-{8-[(2-butyloctyl)oxy]-N-[3-(dimethylamino)propoxy]-8-oxooctanamido}octadecanoate]
Final Product % EE [1, 5]: 94% | Final Product PDI [1, 5]: 0.04 | Final Product Z-avg [1, 5]: 70 nm | Luc Activity ([2]; Table 12): 6.69E+06 pg/g liver

CCCCC/C=C\CCCOC(=O)CC(CCCCCCCCC)N(CCCN(C)C)S(=O)(=O)CCCCCCCCCCC (stereo not drawn) [Compound 52, (Z)-Dec-4-en-1-yl 3-(N-(3-(dimethylamino)propyl)undecylsulfonamido)dodecanoate]
Final Product % EE [1, 3]: 95% | Final Product PDI [1, 3]: 0.05 | Final Product Z-avg [1, 4]: 72 nm | Luc Activity ([2]; Table 8): 5.65E+06 pg/g liver

CCCCCCCCCC(=O)N(CCCN(C)C)C(CCCCCCCCC)CC(=O)NN=C(CCCCCCCC)CCCCCCCC (stereo not drawn) [Compound 55, N-[3-(dimethylamino)propyl]-N-{1-[N′-(heptadecan-9-ylidene)hydrazinecarbonyl]undecan-2-yl}decanamide]
Final Product % EE [1, 6]: 98% | Final Product PDI [1, 6]: (0.17) | Final Product Z-avg [1, 6]: 94 nm | Luc Activity ([2]; Table 9): 1.22E+06 pg/g liver

CCCCCCCCCC(=O)N(CCCN(C)C)C(CCCCCCCCC)CC(=O)NNC(CCCCCCCC)CCCCCCCC (stereo not drawn) [Compound 58, N-[3-(dimethylamino)propyl]-N-{1-[N′-(heptadecan-9-yl)hydrazinecarbonyl]undecan-2-yl}decanamide]
Final Product % EE [1, 6]: 99% | Final Product PDI [1, 6]: (0.13) | Final Product Z-avg [1, 6]: 81 nm | Luc Activity ([2]; Table 9): 3.11E+05 pg/g liver

CCCCCCCCCCC(CCCCCC(=O)OCC(CCCCCC)CCCCCCCC)N(CCCN(C)C)C(=O)CCCCCCC(=O)OCC(CCCC)CCCCCC (stereo not drawn) [Compound 29, 2-Hexyldecyl 7-(8-((2-butyloctyl)oxy)-N-(3-(dimethylamino)propyl)-8-oxooctanamido)-heptadecanoate]
Final Product % EE [1, 5]: 98% | Final Product PDI [1, 5]: 0.02 | Final Product Z-avg [1, 5]: 80 nm | Luc Activity ([2]; Table 12): 6.74E+07 pg/g liver

CCCCCCCCCCC(CCCCCC(=O)OCCCCC(CCCCCCCC)CCCCCCCC)N(CCN(C)C)C(=O)CCCCCCC(=O)OC(CC)CCCCCCCC (stereo not drawn) [Compound 28, 5-Octyltridecyl 7-(N-(2-(dimethylamino)ethyl)-8-oxo-8-(undecan-3-yloxy)octanamido)-heptadecanoate]
Final Product % EE [1, 7]: 95% | Final Product PDI [1, 7]: 0.20 | Final Product Z-avg [1, 7]: 90 nm | Luc Activity ([2]; Table 11): 6.50E+06 pg/g liver

CCCCCCCCCCC(CCCCCCC(=O)OCC(CCCCCC)CCCCCCCC)N(CCCN(C)C)C(=O)CCCCCCC(=O)OCc1cc(CCCCCC)cc(CCCCCC)c1 (stereo not drawn) [Compound 83]
Luc Activity ([2]; Table 12): 4.59E+07 pg/g liver

CCCCC/C=C\CCCC(CCC/C=C\CCCCC)CN(C(=O)CCN(C)C)C(CCCCCCCCCC)CCCCCCC(=O)OCCCCCCCCCC (stereo not drawn) [Compound 37]
Luc Activity ([2]; Table 11): 3.01E+06 pg/g liver

CCCCCCCCCCC(CCCCCCC(=O)OCC(CCCCCC)CCCCCCCC)N(CCCCCCCC(=O)OCC(CCCCCC)CCCCCCCC)C(=O)CCCN(C)C (stereo not drawn) [Compound 63]
Luc Activity ([2]; Table 12): 6.23E+07 pg/g liver

CCCCCCCCCCC(CCCCCCC(=O)OCC(CCCCCC)CCCCCCCC)N(CCCN(C)C)C(=O)CCCCCCCCC(=O)OCC(CCCC)CCCCCC (stereo not drawn) [Compound 81]
Luc Activity ([2]; Table 12): 3.47E+07 pg/g liver

CCCCCCCCCCOC(=O)CC(CCCCCCCCC)N(CCCN(C)C)S(=O)(=O)CC(CCCCCC)CCCCCCCC (stereo not drawn) [Compound 50, Decyl 3-{N-[3-(dimethylamino)propyl]2-hexyldecanesulfonamido}dodecanoate]
Final Product % EE [1, 3]: 93% | Final Product PDI [1, 3]: 0.07 | Final Product Z-avg [1, 4]: 61 nm | Luc Activity ([2]; Table 8): 4.82E+06 pg/g liver

CCCCCCCCCCC(CCCCCCC(=O)OCC(CCCCCC)CCCCCCCC)N(CCCN(C)C)C(=O)CCCCCCCC(=O)OCC(CCCC)CCCCCC (stereo not drawn) [Compound 80]
Luc Activity ([2]; Table 12): 3.28E+07 pg/g liver

CCCCC/C=C\CCCC(CCC/C=C\CCCCC)CN(C(=O)CCCN(C)C)C(CCCCCCCCCC)CCCCCCC(=O)OCCCCCCCCCC (stereo not drawn) [Compound 36]
Luc Activity ([2]; Table 11): 5.54E+06 pg/g liver

CCCCCCCCCCC(CCCCCCC(=O)OC(CCCCCCCC)CCCCCCCC)N(CCCCCCCC(=O)OCCC(CCCCC)CCCCC)C(=O)CCCN(C)C (stereo not drawn) [Compound 68]
Luc Activity ([2]; Table 12): 4.36E+07 pg/g liver

CCCCCCCCCC(CC(=O)OCC(CCCCCC)CCCCCCCC)N(CCCN(C)C)S(=O)(=O)CCCCCCCC (stereo not drawn) [Compound 48, 2-hexyldecyl 3-{N-[3-(dimethylamino)propyl]octane-1-sulfonamido}dodecanoate]
Final Product % EE [1, 3]: 96% | Final Product PDI [1, 3]: 0.04 | Final Product Z-avg [1, 4]: 71 nm | Luc Activity ([2]; Table 8): 6.49E+06 pg/g liver

CCCCCCCCCCC(CCCCCCC(=O)OCC(CCCCCC)CCCCCCCC)N(CCCN(C)C)C(=O)CCCCCCC(=O)OCC(CCCC)CCCCCC (stereo not drawn) [Compound 78]
Luc Activity ([2]; Table 11): 5.30E+07 pg/g liver

CCCCCCCCCCC(CCCCCCC(=O)OCC(CCCCCC)CCCCCCCC)N(CCCN(C)C)C(=O)CCCCCCC(=O)OCCC(CCCCC)CCCCC (stereo not drawn) [Compound 82]
Luc Activity ([2]; Table 12): 1.23E+07 pg/g liver

CCCCCCCCCCC(CCCCCCC(=O)OC(CCCCCCCC)CCCCCCCC)N(CCCN(C)C)C(=O)CCCCCCC(=O)OCCC(CCCCC)CCCCC (stereo not drawn) [Compound 31]
Luc Activity ([2]; Table 12): 1.47E+07 pg/g liver

CCCCCCCCCCC(CCCCCCC(=O)OCC(CCCCCC)CCCCCCCC)N(CCCCCCCC(=O)OCC(CCCCCC)CCCCCCCC)C(=O)CCCCN(C)C (stereo not drawn) [Compound 64]
Luc Activity ([2]; Table 12): 9.76E+07 pg/g liver

CCCCC/C=C\CCCC(CCC/C=C\CCCCC)CN(C(=O)CCCCN(C)C)C(CCCCCCCCCC)CCCCCCC(=O)OCCCCCCCCCC (stereo not drawn) [Compound 35]
Luc Activity ([2]; Table 11): 1.40E+07 pg/g liver

CCCCCCCCCCOC(=O)CCCCCCC(=O)N(CCCN(C)C)C(CCCCCCCCCC)CCCCCCC(=O)OCC(CCCCCC)CCCCCCCC (stereo not drawn) [Compound 79]
Luc Activity ([2]; Table 11): 1.05E+07 pg/g liver
